Measured values as given in patent US8877696B2, “Cleaning compositions comprising pH-switchable amine surfactants” (The Proctor & Gamble Company, priority 2012, dated 2014).
One block for each molecule: values may come before it.

Tests used:
Type in all cases: physicochemical
[1] = Critical micelle formation concentration (CMC) by surface tension
Description: MEASUREMENT OF THE CRITICAL MICELLE FORMATION CONCENTRATION (CMC): CMC measurements are conducted by a measurement of a surface tension measure as a function of surfactant concentration according to “Surfactant: A Practical Handbook,” K. Robert Lange ed., Hanser Publishers, Munich (1999), pp. 16-17. A 5000-ppm stock solution of the samples is prepared for the analysis on a Kruss K100 Tensiometer (Kruss USA, Charlotte, N.C.). The hardness level and pH are adjusted using corresponding stock solutions of artificial hardness and an NaOH solution. The concentration series is generated automatically with a computer-controlled Dosimat, so that only a surfactant stock solution needs to be prepared. Measurements of surface tension at the air-water interface are carried out at twelve surfactant concentrations. The samples are analyzed at pH 8 and pH 10 for hardness values of 4 gpg and 8 gpg, all measurements being taken at 25.0° C. (±0.5° C.). The CMC data are analyzed by plotting increase in surface tension with respect to dilution by using the “CMC Add-In” of the Lab Desk software from Kruss. The CMC is defined as the surfactant concentration at the breakpoint in the titration curve.

[2] = Suds testing protocol (FOAMSCAN foam / suds / lather volume); conditions: for Foam Volume: lauric acid 2000 ppm
Description: SUDS TESTING PROTOCOL: Foam volume and foam mileage are measured by […] instrument manufactured by […].-Concept, Longessaigne, France. The experiment is run at 25.0° C. (±0.5° C.). […] The cleaning solution contains 25 ppm Technical Body Soil (“TBS”; consisting of 15 wt. % coconut oil, 15 wt. % oleic acid, 15 wt. % paraffin oil, 15 wt. % olive oil, 15 wt. % cottonseed oil, 5 wt. % squalene, 5 wt. % cholesterol, 5 wt % myristic acid, 5 wt. % palmitic acid, and 5 wt. % stearic acid). The cleaning solution is mixed and aged at 60° C. for an hour and is placed into the […] sample chamber, a 1000-mL cylindrical transparent plastic cell. […] The suds volume recorded at the end of stifling is defined as the suds volume generated. The suds mileage is monitored by the time course of the suds height over 10 minutes. The final suds volume at the end of the 10 minutes is reported. […] Hardness is indicated by a calculation where both calcium and magnesium values are reported as mg/L (ppm), in which 2.5[Ca]+4.12[Mg] equals hardness in mg/L. The unit “grains per gallon” (gpg) is defined as 1 grain (64.8 mg) of calcium carbonate per U.S. gallon (3.79 L), or 17.118 ppm. Thus, 1 gpg is equivalent to 17.118 ppm of the Calcium and Magnesium solution at a 3:1 molar ratio of calcium to magnesium.

[3] = Micellar lifetime (τ2) by stopped flow conductimetry; conditions: pH 10.0 (wash), lauric acid system
Description: MEASUREMENT OF […] […] (τ2): The micellar stability of a surfactant system is measured by Stopped Flow Conductimetry. The experiment is run at 25.0° C. (±0.5° C.). […] The conductivity of the solution is monitored by a MCS-200 Impedance Spectrometer from Bio-Logic SAS. The τ2 value is defined as the time required to reach a new equilibrium, as determined by curve-fit software BKMCS (version #1) from the Bio-Logic SAS company.

[4] = Marangoni effect (E′/E″), oscillating drop interfacial rheology; conditions: pH 10.0 (wash), lauric acid system
Description: […] EFFECT (EYE'') MEASUREMENT: The Marangoni Effect quantifies the origin of foam film stability. Dynamic interfacial rheology is measured by a DSA100 (Kruss USA, Charlotte, N.C.) instrument equipped with an Oscillating Drop Module (ODM). The measurement is based on monitoring oscillating pendent drop shape with a CCD camera. The dynamic changes in the surface area and the interfacial tension (air-liquid interface) of the pendent drop from oscilating at equal periods, were recorded. A delay of dynamic interfacial tension change to dynamic surface area change is expressed as a phase angle Φ […]. From the measured phase angle, the Elastic Modulus (E') and Viscous Modulus (E'') are calculated. The Marangoni Effect EYE'' is computed from the relationship, E'/E''=cot Φ. At various surfactant levels, measurements are conducted at pH 10 and 4 gpg hardness in a base matrix of 300 ppm LAS (detergent measurements only) or 2000 ppm fatty acid (bar soap measurements only); 2300 ppm Na2SO4, and 25 ppm TBS (described above). The pH-switchable cosurfactants are added on the top of the base matrix to assess their impact on foam-film stability. The ODM operation is conducted with a period time of 2 seconds and an oscillation amplitude of 0.1 or 0.5.

CMC ([1]; pH 8): 48 ppm
CMC ([1]; pH 10): 43 ppm
SMILES: CCCCCCCCCCCC[N+](C)(C)CCO.[Br-] [KDB, dodecyl-(2-hydroxyethyl)-dimethyl ammonium bromide]

Foam Volume ([2]; pH 8.0 (rinse)): 222 mL
Foam Volume ([2]; pH 10.0 (wash)): 80 mL
τ2 [3]: 39 ms
E′/E″ [4]: 1.5
SMILES: CCCCCCCCCCCC(=O)O [Lauric Acid]

CMC ([1]; pH 8): 82 ppm
CMC ([1]; pH 10): 75 ppm
SMILES: CCCCCCCCCCCCNCCC[N+](C)(C)C.[Br-] [QUAT, 3-(dodecylamino)-N,N,N-trimethylpropan-1-aminium bromide]

Change of Lather Volume (rinse vs wash) ([2]; 4 gpg): −72%
Change of Lather Volume (rinse vs wash) ([2]; 8 gpg): −100%
Change of Lather Volume (rinse vs wash) ([2]; DI Water): −23%
Lather Volume ([2]; pH 8.0 (rinse), 4 gpg): 60 mL
Lather Volume ([2]; pH 8.0 (rinse), 8 gpg): 0 mL
Lather Volume ([2]; pH 8.0 (rinse), 12 gpg): 0 mL
Lather Volume ([2]; pH 8.0 (rinse), 16 gpg): 0 mL
Lather Volume ([2]; pH 8.0 (rinse), DI Water): 170 mL
Lather Volume ([2]; pH 10.0 (wash), 4 gpg): 215 mL
Lather Volume ([2]; pH 10.0 (wash), 8 gpg): 175 mL
Lather Volume ([2]; pH 10.0 (wash), 12 gpg): 0 mL
Lather Volume ([2]; pH 10.0 (wash), 16 gpg): 0 mL
Lather Volume ([2]; pH 10.0 (wash), DI Water): 220 mL
SMILES: CCCCCCCCCCCC(=O)[O-].[Na+] [Sodium Laurate]
